Source: patent publication US11419883B2, “Inhibiting senescent processes in beta cells for the prevention of type 1 diabetes” (The Regents of the University of California, priority 2017, dated 2022)

How the values were obtained:
NOD mice = test: Diabetes incidence in NOD mice after senolytic treatment; assay type: in vivo
Procedure: FIG. 2 depicts the incidence of diabetes in a cohort of NOD mice treated with ABT-199 (n=5) or vehicle (n=5).
For studies using ABT-737, 10 week old euglycemic NOD/ShiltJ mice were given oral gavage of 100 mg/kg ABT-737 or vehicle (30% propylene glycol, 5% Tween-80 and 65% D5W) for 3 consecutive days followed by a break for 4 days and then again treated for 3 days (a total of 6 doses), and then untreated for 2 weeks followed by three consecutive days of ABT-737 or vehicle treatment and then allowed to age without further treatment until 28 weeks of age.
To determine whether clearance of SASP beta cells prevented diabetes, 10 week euglycemic NOD mice were administered ABT-737 by oral gavage for two weeks, followed by another dose at 16 weeks and allowed to age. Strikingly, while 60% of vehicle control mice were diabetic at this time, only 40% of ABT-737-treated mice became diabetic. We performed a similar study with ABT-199, administering the drug by oral gavage for 2 weeks from 11-13 weeks of age and allowing the mice to age to 30 weeks. Remarkably, while 100% of the controls became diabetic by 28 weeks, only 10% of the ABT-199-treated mice were diabetic (FIG. 2).

immune compartment = test: Flow cytometry of immune cell types in spleen, pancreatic lymph nodes and islets of treated mice; assay type: in vivo, NOD mice; conditions: pancreatic lymph nodes, islets; for proportions or balance of effector T cells, B cells and regulatory T cells: relative to vehicle control mice
Procedure: (§1) Example 5. Targeted depletion of SASP beta cells prevents diabetes in NOD mice The impact of senolytic treatments on immune cells was assessed. In islets from NOD mice treated with ABT-737, there was a 2-fold increase in apoptotic cells, as measured by flow cytometry for Annexin V and propidium iodide, in the endocrine compartment compared to vehicle control mice (FIG. 1). […] Flow cytometry was then used to examine the distributions and proportions of main lymphoid cell types involved in T1D in the spleen, pancreatic lymph nodes, and islets from vehicle control and ABT-737- and ABT-199-treated mice.

[1] = test system: CD45-depleted islet cells; test: SASP factors in conditioned media from CD45-depleted islet cells of treated NOD mice; assay type: in vivo; conditions: compared to vehicle control mice
Procedure: The secretome of islet cells from the 14-16 week NOD mice was analyzed. Islets depleted of CD45^+ cells were cultured in serum-free media and the resulting culture supernatant, hereafter referred to as conditioned media (CM) was analyzed using a bead-based multi-analyte luminex assay including a variety of key SASP factors and immune cell-specific non-SASP factors (IL-2, Granzyme B). Consistent with the immunohistochemistry analysis, the secretion of SASP factors (IL-6, Serpine1, G-CSF, Ccl2, Mmp9, Mmp12 and Igfpb3) was dramatically higher in the CD45-depleted islet cell populations from 14-week NOD mice as compared with 8-week mice. To determine the time-course of the stress response and SASP in beta cells, younger cohorts of 10 and 12-week old euglycemic NOD mice were analyzed by immunostaining for Cdknla and IL-6.
(§2) Similarly, THP1 chemotaxis activity was reduced in the CM upon ABT-737 treatment of islets relative to vehicle-treated islets ex vivo.

NOD islets [2] = test: NOD islets treated with BH3 mimetics, senescence marker mRNA; assay type: cell-based, mouse; conditions: NOD islets treated with BH3 mimetic
From the text: Example 4. BH3 mimetics preferentially eliminate SASP beta cells in NOD mice. To determine the role of SASP cells in the development of T1D, we next explored whether pro-survival checkpoints could be exploited to promote selective deletion of senescent beta cells. […] The Bcl-2 family contains a hydrophobic groove called the BH3 domain and ‘BH3 mimetics’ are pharmacological compounds that mimic the binding of the BH3-only initiator proteins to the pro-survival members. The BH3 mimetics can trigger apoptosis with some specificity in cells that have high levels of Bcl-2 or the related members. A number of small molecule inhibitors that target Bcl-2, Bcl-xL, Bcl-w or Mcl-1 proteins have been developed and some of them have been used to preferentially trigger apoptosis in senescent cells, both in vitro and in vivo. To determine which Bcl-2 pro-survival members were relevant to SASP islet cells, we treated NOD islets with BH3 mimetics that had different specificities. ABT-737 targets Bcl-2 and family members Bcl-xL and Bcl-w, ABT-199 selectively targets Bcl-2, and Maritoclax targets only Mcl-1. […]

NOD islets [3] = test: Apoptosis in islets of treated NOD mice (Annexin V/propidium iodide flow cytometry, TUNEL); assay type: in vivo
Procedure: FIG. 1 depicts the abundance of apoptotic cells (Annexin V^+) in the CD45-(endocrine enriched) fractions of NOD islets treated with ABT-737 for two weeks, compared to control vehicle-treated mice (n=2 mice per group), error bars are s.d. *p<0.05, two-tailed T-test.
as §1

SASP beta cells = test: ABT-737 oral gavage in NOD mice, immunostaining of senescence and SASP markers in beta cells; assay type: in vivo; conditions: oral gavage for 1 week
Procedure: To determine whether ABT-737 targeted SASP beta cells for apoptosis in vivo, NOD mice were administered ABT-737 via oral gavage for 1 week followed by analysis of senescence and SASP markers by immunostaining.

[4] = test system: NOD MEFs and 8-week NOD islet cells; test: Paracrine senescence activity of conditioned media from islet cells of treated mice; assay type: cell-based, mouse; conditions: CM from CD45-depleted islet cells of treated mice, on NOD MEFs and 8-week NOD islet cells
Procedure: Example 3. Non-cell autonomous activities of islet SASP. To address whether the SASP of beta cells had non-cell autonomous effects resembling SASP, the ability of secreted factors from CD45-depleted islet cells of 14 wk NOD mice to induce senescence in NOD mouse embryonic fibroblasts (MEFs) and in 8 week NOD islets (when senescence is not observed) was assessed. When early passage NOD MEFs were cultured in the presence of CM from 14 wk CD45-depleted NOD islet cells (NCM) they induced Cdkn1a and Cdkn2a expression and increased SA-βgal activity, similarly to the senescent MEF CM control (SCM). The NCM was also capable of increasing the proportion of SA-βgal^+ cells in the cultured islets from 8 week old NOD mice.
as §2

human THP-1 cell line = test: THP1 monocyte chemotaxis (transwell) with conditioned media of treated islets; assay type: cell-based; conditions: treatment of islets ex vivo, relative to vehicle-treated islets
Procedure: The ability of CM from NOD islet cells and human islets to induce monocyte chemotaxis using the transwell assay was tested using the human THP-1 cell line. NCM was capable of stimulating chemotaxis 3-fold over the SFM control, similarly to the positive control, serum-free media conditioned with recombinant mouse CCL2. In addition, CM from human islets expressing SASP induced THP1 chemotaxis ˜5-fold over the SFM control.
as §2

[5] = test system: normal human donor islets; test: Bleomycin-induced senescence and SASP in normal human donor islets; assay type: cell-based
Procedure: Next, normal human donor islets were treated with the chemotherapeutic agent bleomycin to induce double-strand DNA breaks and monitored the development of stress-induced senescence and SASP by qRT-PCR and secretion assays after 5 days, coinciding with the typical onset of SASP.

| Molecule | treated mice diabetic (NOD mice; dosed 2 weeks from 11-13 weeks of age, by 28 weeks, 100% of controls diabetic) [%] | proportions of macrophages or dendritic cells (immune compartment) | proportions or balance of effector T cells, B cells and regulatory T cells (immune compartment) | levels of SASP factors in CM from CD45-depleted islet cells [1] | Cdkn1a mRNA from treated islets (NOD islets [2]) | Cdkn2a mRNA from treated islets (NOD islets [2]) | increase in apoptotic cells (Annexin V+) in the endocrine compartment (NOD islets [3]; CD45- fraction of NOD islets, treated two weeks, compared to vehicle control mice) [fold] | TUNEL staining of apoptotic islet cells (NOD islets [3]; pancreata from treated mice) | apoptosis in the immune compartment (NOD islets [3]; relative to vehicle controls) | treated mice that became diabetic (NOD mice; 10 week NOD mice, oral gavage two weeks plus another dose at 16 weeks, 60% of vehicle controls diabetic) [%] | Cdkn2a expression in beta cells (immunostaining) (SASP beta cells) | reduction in Cdkn2a+ beta cells (SASP beta cells; quantification) | SASP marker Mmp2+ beta cells (SASP beta cells; relative to controls) | paracrine senescence activity of CM [4] | THP1 chemotaxis activity of CM (human THP-1 cell line) | expression of CDKN1A and CDKN2A (qRT-PCR) ([5]; after 5 days) | SASP factors IL-6, IL-8, IL-1β and TNFα in CM (Luminex) ([5]; compared with control islet CM) |
| --- | --- | --- | --- | --- | --- | --- | --- | --- | --- | --- | --- | --- | --- | --- | --- | --- | --- |
| CC1(C)CCC(CN2CCN(c3ccc(C(=O)NS(=O)(=O)c4ccc(NCC5CCOCC5)c([N+](=O)[O-])c4)c(Oc4cnc5[nH]ccc5c4)c3)CC2)=C(c2ccc(Cl)cc2)C1 [ABT-199] | 10 | no changes | no significant changes | lower levels of most of the SASP factors | significant reduction | significant reduction | – | – | – | – | – | – | – | – | – | – | – |
| CN(C)CC[C@H](CSc1ccccc1)Nc1ccc(S(=O)(=O)NC(=O)c2ccc(N3CCN(Cc4ccccc4-c4ccc(Cl)cc4)CC3)cc2)cc1[N+](=O)[O-] [ABT-737] | – | no changes | no significant changes | lower levels of most of the SASP factors | significant reduction | significant reduction | 2 | showed TUNEL^+ cells within the islet | no significant differences | 40 | marked reduction | over 40% | only rarely detected | diminished | reduced | – | – |
| O=C(c1ccccc1O)c1[nH]c(Cl)c(Cl)c1-n1c(C(=O)c2ccccc2O)cc(Cl)c1Cl [Maritoclax] | – | – | – | – | did not have effects | did not have effects | – | – | – | – | – | – | – | – | – | – | – |
| bleomycin | – | – | – | – | – | – | – | – | – | – | – | – | – | – | – | induced expression | increased levels |
